Test results taken from ChEMBL document CHEMBL1201862, “PubChem BioAssay data set” (2004).
Calls of active or inactive are those of the source.

Assays:
CAAX prenyl protease 2 = target: T1, CAAX prenyl protease 2 (Saccharomyces cerevisiae S288c, UniProt Q03530); format: biochemical
T1 sequence (Q03530 whole entry): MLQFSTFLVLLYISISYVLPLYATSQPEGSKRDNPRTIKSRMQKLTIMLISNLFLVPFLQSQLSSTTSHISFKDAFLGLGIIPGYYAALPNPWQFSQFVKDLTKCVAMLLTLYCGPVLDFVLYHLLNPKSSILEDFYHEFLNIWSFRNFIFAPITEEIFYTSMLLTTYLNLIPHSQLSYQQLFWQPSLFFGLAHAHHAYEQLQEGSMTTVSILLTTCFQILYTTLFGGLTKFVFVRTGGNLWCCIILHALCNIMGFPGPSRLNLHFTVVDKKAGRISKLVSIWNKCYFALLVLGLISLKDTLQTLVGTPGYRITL

[1] = target: DNA dC->dU-editing enzyme APOBEC-3A (Homo sapiens, UniProt P31941); assay: A3A deaminase inhibition for selectivity – biochemical, dose response (AID 504722); format: functional
[2] = target: FAD-linked sulfhydryl oxidase ALR (Homo sapiens, UniProt P55789); assay: ALR-catalysed DTT oxidation blockers – biochemical, H2O2 detection, luminescence, cherry-pick, dose response (AID 493248)
[3] = target: DNA dC->dU-editing enzyme APOBEC-3G (Homo sapiens, UniProt Q9HC16); assay: Dose Response confirmation of small molecule APOBEC3G DNA Deaminase Inhibitors via a fluorescence-based single-stranded DNA deaminase assay. [Related pubchem assays (depositor defined):AID493012, AID493028]; format: functional
[4] = target: T2, Rac GTPase-activating protein 1 (Homo sapiens, UniProt Q9H0H5); assay: blockers of MgcRacGAP-driven Rac1 GTP hydrolysis – biochemical, ADP Hunter fluorescence, primary and confirmatory, confirmation (AID 624330); format: functional
T2 sequence (Q9H0H5 whole entry): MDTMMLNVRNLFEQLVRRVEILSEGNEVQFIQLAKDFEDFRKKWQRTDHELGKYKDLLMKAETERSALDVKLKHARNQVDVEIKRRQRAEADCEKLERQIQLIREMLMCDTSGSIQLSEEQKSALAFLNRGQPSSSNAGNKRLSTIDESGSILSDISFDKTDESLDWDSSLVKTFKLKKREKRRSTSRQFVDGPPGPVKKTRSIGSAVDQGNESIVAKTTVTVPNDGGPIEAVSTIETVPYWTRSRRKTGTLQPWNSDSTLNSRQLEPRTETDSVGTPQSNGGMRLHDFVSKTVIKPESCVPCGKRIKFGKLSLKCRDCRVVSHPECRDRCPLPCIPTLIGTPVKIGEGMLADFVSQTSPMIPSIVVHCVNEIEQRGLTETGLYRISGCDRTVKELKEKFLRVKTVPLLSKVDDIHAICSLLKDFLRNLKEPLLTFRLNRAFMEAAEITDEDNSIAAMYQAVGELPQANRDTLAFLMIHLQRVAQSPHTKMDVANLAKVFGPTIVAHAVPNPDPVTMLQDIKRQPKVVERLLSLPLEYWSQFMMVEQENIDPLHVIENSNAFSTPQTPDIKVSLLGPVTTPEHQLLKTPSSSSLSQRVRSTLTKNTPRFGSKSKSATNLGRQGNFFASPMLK

[5] = target: Eukaryotic translation initiation factor 4E (Mus musculus, UniProt P63073); assay: blockers of eIF4G binding by eIF4E – biochemical, TR-FRET, dose response (AID 855); format: functional;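 note: potency for disrupting eIF4E binding to eIF4GI seen as loss of FRET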
Sequence of Eukaryotic translation initiation factor 4E (P63073 whole entry): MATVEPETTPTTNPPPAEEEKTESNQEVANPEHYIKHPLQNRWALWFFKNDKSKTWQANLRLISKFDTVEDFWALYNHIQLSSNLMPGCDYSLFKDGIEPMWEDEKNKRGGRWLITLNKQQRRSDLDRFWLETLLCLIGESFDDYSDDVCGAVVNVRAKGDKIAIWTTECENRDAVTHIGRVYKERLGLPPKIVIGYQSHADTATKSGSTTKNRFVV

Sequence of DNA dC->dU-editing enzyme APOBEC-3G (Q9HC16 whole entry): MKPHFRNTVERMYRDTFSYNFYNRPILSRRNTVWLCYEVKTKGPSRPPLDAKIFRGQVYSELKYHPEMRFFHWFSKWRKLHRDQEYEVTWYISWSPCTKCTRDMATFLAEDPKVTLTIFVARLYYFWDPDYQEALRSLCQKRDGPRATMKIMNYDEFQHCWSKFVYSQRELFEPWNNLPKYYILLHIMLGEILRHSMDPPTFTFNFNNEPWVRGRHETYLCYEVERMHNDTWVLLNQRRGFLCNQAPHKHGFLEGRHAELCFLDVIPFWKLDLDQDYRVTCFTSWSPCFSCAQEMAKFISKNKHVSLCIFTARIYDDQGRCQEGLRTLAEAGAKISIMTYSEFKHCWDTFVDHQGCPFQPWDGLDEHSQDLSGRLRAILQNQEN
Sequence of FAD-linked sulfhydryl oxidase ALR (P55789 whole entry): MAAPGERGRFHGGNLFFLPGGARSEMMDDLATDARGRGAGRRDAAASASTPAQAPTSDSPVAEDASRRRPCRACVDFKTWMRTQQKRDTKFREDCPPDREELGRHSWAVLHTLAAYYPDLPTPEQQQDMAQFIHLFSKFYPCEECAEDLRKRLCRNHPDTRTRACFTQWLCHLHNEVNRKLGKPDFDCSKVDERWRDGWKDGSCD
Sequence of DNA dC->dU-editing enzyme APOBEC-3A (P31941 whole entry): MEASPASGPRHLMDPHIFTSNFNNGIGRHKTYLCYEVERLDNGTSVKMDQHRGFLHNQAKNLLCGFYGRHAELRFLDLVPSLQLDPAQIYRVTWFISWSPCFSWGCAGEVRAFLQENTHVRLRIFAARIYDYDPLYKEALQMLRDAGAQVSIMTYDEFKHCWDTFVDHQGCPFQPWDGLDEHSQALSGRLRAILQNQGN

CC1(C)CC2CC(C)(CN2S(=O)(=O)c2ccc(N)cc2)C1 (stereo unspecified)
AC50 (CAAX prenyl protease 2): 93.4 µM (active)

Sc1nnc(-c2ccncc2)n1/N=C/C=C/c1ccccc1
IC50 [1]: > 100 µM (inactive)
AC50 [2]: 8.12 µM (active)
IC50 [3]: 2.76 µM (active)
IC50 [4]: 125 µM (active)

CCn1nnnc1SCC(=O)Nc1cccc(NC(C)=O)c1
IC50 [5]: > 64 µM (inactive)
